The source of these data is US20040266784A1, “Calcium channel inhibitors comprising benzhydril spaced from piperazine” (priority 1998, published 2004).

Test [1] addresses T1, rat N-type channels (α1B+α2δ+β1b subunits) (Rattus norvegicus, UniProt Q02294).
T1 construct: expressed in transfected cells
In words: Whole cell patch clamp, N-type calcium channel block in HEK 293 cells. The test is classed as cell-based. Conditions: for specificity for N-type channels as compared to L and P/Q-type: FIGS. 2, 3 and 4. How it is done:
(§1) Antagonist activity was measured using whole cell patch recordings on human embryonic kidney cells either stably or transiently expressing rat N-type channels (α1B+[…]+β1b subunits) with 5 mM barium as a charge carrier. Alternatively, cells either stably or transiently expressing rat L-type channels (α1C+α2δ+β1b cDNA subunits) and P/Q-type channels (α1A+α2δ+β1b cDNA subunits)
HEK 293 cells were transfected by a standard calcium-phosphate-DNA coprecipitation method using the rat α1B+β1b+α2δ N-type calcium channel subunits in a vertebrate expression vector (for example, see Current Protocols in Molecular Biology).
(§2) After an incubation period of from 24 to 72 hrs the culture medium was removed and replaced with external recording solution (see below). Whole cell patch clamp experiments were performed using an Axopatch 200B amplifier (Axon Instruments, Burlingame, Calif.) linked to an IBM compatible personal computer equipped with pCLAMP software. […] Current data shown were elicited by a train of 100 ms test pulses at 0.066 Hz from −100 mV and/or −80 mV to various potentials (min. −20 mV, max. +30 mV). Drugs were perfused directly into the vicinity of the cells using a microperfusion system.
Normalized dose-response curves were fit (Sigmaplot 4.0, SPSS Inc., Chicago, Ill.) by the Hill equation to determine IC50 values. Steady-state inactivation curves were plotted as the normalized test pulse amplitude following 5 s inactivating prepulses at +10 mV increments.
Alternatively, N-type calcium channels (α1B+α2δ+β1b cDNA subunits), L-type channels (α1C+α2δ+β1b cDNA subunits) and P/Q-type channels (α1A+α2δ+β1b cDNA subunits) were transiently expressed in HEK 293 cells. Briefly, cells were cultured in Dulbecco's modified eagle medium (DMEM) supplemented with 10% fetal bovine serum, 200 U/ml penicillin and 0.2 mg/ml streptomycin at 37° C. with 5% CO2. […] At 12 hours the medium was replaced and the cells transiently transfected using a standard calcium phosphate protocol and the appropriate calcium channel cDNAs. Fresh DMEM was supplied and the cells transferred to 28° C./5% CO2.
Whole cell patch clamp experiments were performed using an Axopatch 200B amplifier (Axon Instruments, Burlingame, Calif.) linked to a personal computer equipped with pCLAMP software. […] Currents were typically elicited from a holding potential of −80 mV to +10 mV using Clampex software (Axon Instruments). […] The compounds were then applied during the low frequency pulse trains for two to three minutes to assess tonic block, and subsequently the pulse frequency was increased to 0.2 Hz to assess frequency dependent block. Data were analyzed using Clampfit (Axon Instruments) and SigmaPlot 4.0 (Jandel Scientific).
(In general: The patch-clamp technique gives a direct electrical read-out from membranes.)

Test [2] concerns the target T2, human α1G subunits (T-type channels) (Homo sapiens, UniProt O43497).
T2 construct: expressed in transfected cells
In words: Block of α1G T-type channels, patch clamp in HEK cell lines. The format is cell-based. How it is done:
Standard patch-clamp techniques were employed to identify blockers of T-type currents. Briefly, previously described HEK cell lines stably expressing human α1G subunits were used for all the recordings (passage #: 4-20, 37° C., 5% CO2). To obtain T-type currents, plastic dishes containing semi-confluent cells were positioned on the stage of a ZEISS AXIOVERT S100 microscope after replacing the culture medium with external solution (see below). Whole-cell patches were obtained using pipettes (borosilicate glass with filament, O.D.: 1.5 mm, I.D.: 0.86 mm, 10 cm length), fabricated on a SUTTER P-97 puller with resistance values of ˜5 MΩ (see below for internal medium).
Test compounds were dissolved in external solution, 0.1-0.01% DMSO. After ˜10 min rest, they were applied by gravity close to the cell using a WPI microfil tubing. The “non-inactivating” pre-pulse was used to examine the resting block of a compound. The “inactivating” protocol was employed to study voltage-dependent block. However, the initial data were obtained using the non-inactivating protocol.

Test [3] addresses T3, rat L-type channels (α1C+α2δ+β1b cDNA subunits) (Rattus norvegicus, UniProt P22002).
T3 construct: expressed in transfected cells
In words: Whole cell patch clamp, L-type calcium channel block in HEK 293 cells. The test is classed as cell-based. Conditions: Tested at 0.1 Hz, 5 mM Ba2+. How it is done: as §1, §2
(§3) Normalized dose-response curves were fit (Sigmaplot 4.0, SPSS Inc., Chicago, Ill.) by the Hill equation to determine IC50 values. […]
(§4) Whole cell patch clamp experiments were performed using an Axopatch 200B amplifier (Axon Instruments, Burlingame, Calif.) linked to a personal computer equipped with pCLAMP software. […] Data were analyzed using Clampfit (Axon Instruments) and SigmaPlot 4.0 (Jandel Scientific).

The target in test [4] is T1, rat N-type channels (α1B+α2δ+β1b subunits). In words: Whole cell patch clamp, N-type calcium channel block in HEK 293 cells. Conditions: Tested at 0.1 Hz, 5 mM Ba2+. The test is classed as cell-based.
In test [5] the target is T4, P/Q-type channels (α1A+α2δ+β1b cDNA subunits) (Rattus norvegicus, UniProt P54282).
T4 construct: expressed in transfected cells
In words: Whole cell patch clamp, P/Q-type calcium channel block in HEK 293 cells. The test is classed as cell-based. Conditions: Tested at 0.1 Hz, 5 mM Ba2+. How it is done: as §1, §2, §3, §4

A further test has as its system rat formalin model. In words: Formalin-induced pain model. The test is classed as in vivo. Conditions: 30 mg/kg IP, saline control=100%. How it is done: The effects of intrathecally delivered compounds of the invention on the rat formalin model were measured. The compounds were reconstituted to stock solutions of approximately 10 mg/ml in propylene glycol.
The following study groups were used, with test compound, vehicle control (propylene glycol) and saline delivered intraperitoneally (IP):
Prior to initiation of drug delivery baseline behavioral and testing data were taken.
On the morning of testing, a small metal band (0.5 g) was loosely placed around the right hind paw. The rat was placed in a cylindrical Plexiglas chamber for adaptation a minimum of 30 minutes. Test compound or vehicle control was administered 10 minutes prior to formalin injection (50 μl of 5% formalin) into the dorsal surface of the right hindpaw of the rat. The animal was then placed into the chamber of the automated formalin apparatus where movement of the formalin injected paw was monitored and the number of paw flinches tallied by minute over the next 60 minutes.

Where [6] appears, read: 0.067 Hz, read-out: IC50 for N-type Calcium Channel Block (0.067 Hz).
The mark [7] stands for this setting: 0.2 Hz, read-out: IC50 for N-type Calcium Channel Block (0.2 Hz).
Where [8] appears, read: 80 mV, read-out: Block of α1G T-type Channels IC50, 80 mV.
The mark [9] stands for this setting: 100 mV, non-inactivating protocol, read-out: Block of α1G T-type Channels IC50, 100 mV.

pIC50: −log10 of the molar value. Like-named read-outs stand apart in the source and are kept apart here.

T2 sequence (O43497 whole entry): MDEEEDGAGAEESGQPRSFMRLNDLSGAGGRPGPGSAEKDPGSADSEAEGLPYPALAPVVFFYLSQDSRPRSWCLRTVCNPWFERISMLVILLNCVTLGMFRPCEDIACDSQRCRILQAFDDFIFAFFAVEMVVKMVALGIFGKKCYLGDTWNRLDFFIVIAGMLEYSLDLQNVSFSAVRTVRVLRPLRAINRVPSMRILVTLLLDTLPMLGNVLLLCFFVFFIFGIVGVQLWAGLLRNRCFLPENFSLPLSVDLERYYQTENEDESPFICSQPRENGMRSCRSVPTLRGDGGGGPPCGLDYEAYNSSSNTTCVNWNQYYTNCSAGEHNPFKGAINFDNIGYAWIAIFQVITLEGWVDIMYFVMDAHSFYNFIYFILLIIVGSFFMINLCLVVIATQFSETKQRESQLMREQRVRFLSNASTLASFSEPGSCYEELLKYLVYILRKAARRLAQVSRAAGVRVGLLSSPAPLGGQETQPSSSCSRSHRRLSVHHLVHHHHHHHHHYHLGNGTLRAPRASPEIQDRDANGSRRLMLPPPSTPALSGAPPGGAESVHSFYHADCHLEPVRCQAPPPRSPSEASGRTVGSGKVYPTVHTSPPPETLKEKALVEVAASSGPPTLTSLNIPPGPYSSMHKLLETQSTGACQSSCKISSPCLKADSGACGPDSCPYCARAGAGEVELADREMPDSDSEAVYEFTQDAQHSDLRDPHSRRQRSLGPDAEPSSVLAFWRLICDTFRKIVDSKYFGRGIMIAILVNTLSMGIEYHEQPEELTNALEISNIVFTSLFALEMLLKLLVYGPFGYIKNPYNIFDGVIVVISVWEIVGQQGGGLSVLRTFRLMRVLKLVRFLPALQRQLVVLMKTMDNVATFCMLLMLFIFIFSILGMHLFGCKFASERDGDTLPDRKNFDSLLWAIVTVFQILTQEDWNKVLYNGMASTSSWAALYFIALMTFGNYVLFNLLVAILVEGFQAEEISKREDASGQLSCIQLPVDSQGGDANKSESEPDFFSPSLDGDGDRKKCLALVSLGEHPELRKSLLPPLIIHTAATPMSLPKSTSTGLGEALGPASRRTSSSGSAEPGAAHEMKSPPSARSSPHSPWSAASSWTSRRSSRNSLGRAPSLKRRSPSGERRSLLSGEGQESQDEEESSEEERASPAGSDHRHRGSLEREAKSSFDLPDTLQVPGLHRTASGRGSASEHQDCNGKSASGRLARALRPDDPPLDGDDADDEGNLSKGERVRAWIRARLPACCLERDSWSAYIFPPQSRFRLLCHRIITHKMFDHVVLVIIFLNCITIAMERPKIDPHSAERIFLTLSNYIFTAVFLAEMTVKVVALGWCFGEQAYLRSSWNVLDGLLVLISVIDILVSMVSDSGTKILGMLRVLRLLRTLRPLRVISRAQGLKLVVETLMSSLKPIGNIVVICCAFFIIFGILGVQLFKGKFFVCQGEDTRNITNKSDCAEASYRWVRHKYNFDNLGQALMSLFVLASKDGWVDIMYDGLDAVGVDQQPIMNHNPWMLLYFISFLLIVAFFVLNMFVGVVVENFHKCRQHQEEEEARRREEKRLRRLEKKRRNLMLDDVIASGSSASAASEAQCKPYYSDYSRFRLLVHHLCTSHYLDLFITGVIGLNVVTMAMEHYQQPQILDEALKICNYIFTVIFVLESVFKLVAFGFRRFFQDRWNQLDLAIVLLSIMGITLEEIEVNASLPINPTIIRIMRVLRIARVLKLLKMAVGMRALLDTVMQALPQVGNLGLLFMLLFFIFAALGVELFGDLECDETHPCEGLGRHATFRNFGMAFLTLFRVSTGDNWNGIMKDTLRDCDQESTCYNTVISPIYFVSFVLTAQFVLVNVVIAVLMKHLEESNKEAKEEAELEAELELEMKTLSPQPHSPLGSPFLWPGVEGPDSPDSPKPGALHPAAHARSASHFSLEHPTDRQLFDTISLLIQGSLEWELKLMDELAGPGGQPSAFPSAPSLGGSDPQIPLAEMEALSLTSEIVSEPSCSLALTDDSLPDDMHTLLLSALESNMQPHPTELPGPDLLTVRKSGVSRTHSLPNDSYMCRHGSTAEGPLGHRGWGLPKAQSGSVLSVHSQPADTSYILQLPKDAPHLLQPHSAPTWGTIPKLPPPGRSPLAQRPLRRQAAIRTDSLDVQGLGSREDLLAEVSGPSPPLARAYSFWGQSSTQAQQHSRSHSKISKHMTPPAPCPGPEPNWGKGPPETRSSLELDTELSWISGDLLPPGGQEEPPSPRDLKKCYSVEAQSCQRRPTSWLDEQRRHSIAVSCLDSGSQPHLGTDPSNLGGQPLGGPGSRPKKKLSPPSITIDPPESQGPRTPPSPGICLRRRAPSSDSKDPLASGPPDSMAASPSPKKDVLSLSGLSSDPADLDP

In general, pIC50 refers to −log10 of the IC50, conventionally taken in molar units. Consider `CCOC(=O)C1CN(Cc2cc(OC)c(OC)c(OC)c2)CCN1CCCCCC(c1ccc(F)cc1)c1ccc(F)cc1` (stereo not drawn) [Compound P36, 1-[6,6-bis-(4-fluoro-phenyl)-hexyl]-4-(3,4,5,-trimethoxy-benzyl)-piperazine-2-carboxylic acid ethyl ester], for which the negative logarithm of the IC50 (pIC50) in test [1] (setting [6]) was 6.62; in test [1] (setting [7]) it was 6.89; in test [2] (setting [8]) it was 7.33; in test [2] (setting [9]) it was 6.69; in test [3] it was less than 4.00; in test [4], 6.87. For the same compound, in test [5], the negative-log IC50 (pIC50) was 6.04. Further, in test [1], the “specificity for N-type channels as compared to L and P/Q-type” value is “selectively block N-type channels”.

For the compound `COc1c(C(C)(C)C)cc(CN2CCN(CCCCCC(c3ccc(F)cc3)c3ccc(F)cc3)C(=O)C2)cc1C(C)(C)C` [Compound P56], the pIC50 was 7.11 in test [1] (setting [6]), 7.23 in test [1] (setting [7]), 7.04 in test [2] (setting [8]) and 7.02 in test [2] (setting [9]).

Take `O=C(NCC(=O)N1CCN(CCCCCC(c2ccc(F)cc2)c2ccc(F)cc2)CC1)c1ccc(Cl)cc1` [Compound P83]: the pIC50 in test [1] (setting [6]) was 6.41; in test [1] (setting [7]), 6.72; in test [2] (setting [8]), 7.23; in test [2] (setting [9]) it was 6.76.

`Cc1ccc(C(=O)NCC(=O)N2CCN(CCCCCC(c3ccc(F)cc3)c3ccc(F)cc3)CC2)cc1` [Compound P84]: the pIC50 in test [1] (setting [6]) was 6.29; in test [1] (setting [7]), 6.53; in test [2] (setting [8]) it was 6.83; in test [2] (setting [9]) it was 6.43.

In the case of `COc1cc(CN2CCN(C(=O)CCCCCCCC(c3ccccc3)c3ccccc3)CC2)cc(OC)c1OC` [Compound P102], the negative logarithm of the IC50 (pIC50) is 6.38 in test [1] (setting [6]) and 6.53 in test [1] (setting [7]).

As for `COc1c(C(C)(C)C)cc(C(=O)N2CCN(C(=O)CCCCC(c3ccc(F)cc3)c3ccc(F)cc3)C[C@@H]2C)cc1C(C)(C)C` [Compound P104], the pIC50 is 7.22 in test [1] (setting [6]); 7.89 in test [1] (setting [7]); 6.57 in test [2] (setting [8]); 6.24 in test [2] (setting [9]); 3.84 in test [3]; 7.21 in test [4]. Besides, in test [5], the pIC50 is 5.78. Moreover, the “specificity for N-type channels as compared to L and P/Q-type” value in test [1] is listed as “selectively block N-type channels”. The “Maximum Possible Effect±SEM, Phase I” value in the test on rat formalin model (Phase I) came to 79 ± 9%. For the same compound, the “Maximum Possible Effect±SEM, Phase II” value with rat formalin model (Phase II) was 61 ± 9%. Moreover, the “Maximum Possible Effect±SEM, Phase IIA” value with rat formalin model (Phase IIA) is 50 ± 12%.
